Experimental data: US5565424A, “Superactive VIP antagonists” (Ramot - University Authority for Applied Research and …, priority 1994, dated 1996)
Non-standard residues stand in square brackets, D forms with d. Residues, ends and D or L forms follow the SMILES beside them. Nle = CCCC[C@H](N)C(=O)O

Legend:
NCI-H1299 = conditions: for NSCLC colony formation (colonies): NCI-H1299, 1 μM addition, control 29 ± 3.1
[1] = test system: VIP-stimulated cAMP formation in astrocytes; experiment: VIP-stimulated cAMP formation in cortical astrocyte cultures; assay type: cell-based, rat; conditions: 1 μM VIP, FIG. 2
Protocol: FIG. 2. VIP-stimulated cAMP formation was inhibited in the presence of the family of VIP antagonists. Cortical astrocyte cultures were incubated for 10 min with 1 μm VIP and cAMP accumulation was determined by radioimmunoassay (Gozes, et al., J. Pharmacol. & Exp. Therap., 257:959 (1991)). Increasing concentrations of the antagonists were placed in the astrocyte cultures 5 minutes prior to the addition of VIP. Astrocytes were maintained in 35 mm tissue culture dishes with 0.3 mg protein per dish. Each value is the mean of 8-10 determinations from 4 experiments. […] The error bar is the SEM.
In view of the foregoing, astroglia cells were utilized to compare the effects the VIP antagonists of the present invention have on VIP-stimulated cAMP formation. For cAMP determinations, the general protocols involve either the measurement of adenylate cyclase activity or, the use of radioimmunoassays for cAMP which utilize a cAMP determination kit from NEN (New England Nuclear, Boston, Mass.)36 previously described by Gozes, et al. (J. Pharmacol. Exp. Therap., 257:959 (1991)). An HCl (0.05M) extract neutralizecl with 0.5M NaOH may be utilized for the tests.
Rat astrocytes were maintained in cell culture as described above. The accumulation of cAMP was measured by radio-immunoassay (NEN kit, New England Nuclear) from cold trichloro acetic acid extracts (Evans et al., supra, 1984). […]

[2] = test system: non-small cell lung cancer (NSCLC) cell lines; experiment: NSCLC colony formation / cell growth, statements across cell lines
[3] = test system: Sprague-Dawley rat pups, locomotive activity rhythm; experiment: Circadian motor activity rhythms after chronic injection; assay type: in vivo; conditions: 5 μg/day subcutaneous, 28 days, newborn rat pups
Protocol: FIGS. 4(A-J). VIP antagonism disturbed the biological clock via a cAMP-mediated mechanism. Newborn rat pups (Sprague-Dawley, locally bread, Yoxheam, Israel) were chronically injected with VIP analogues (5 μg of each analogue/50 μl/day, subcutaneous), for 28 consecutive days. The vehicle of injection was either 0.01M acetic acid or 15% dimethylsulfoxide (for the lipophilic peptides). On day 21, the animals were placed each one in a separate cage and their locomotive activity was continuously measured. The pattern of locomotive activity was measured using an animal monitoring system with an infrared detector for 7 days (A, C, E, G, I). The spectral periods of rhythm in the activity data was detected by a special statistical method because of the short computer sampling period. […]
Animals were each placed in a separate cage and motor activity was continuously recorded for 6-9 days, using an animal monitoring system with an infrared detector. Spectral analysis of motor activity rhythms is then determined by the fitting of different cosine curves to the activity data (see, Mattes, et al., Chronobiology Int'l, 8:460 (1991)).

NCI-H727 = conditions: for NSCLC colony formation (colonies): NCI-H727, 1 μM addition, control 35.2 ± 2.3
[4] = test system: cAMP (low affinity) VIP receptor on astroglia cells; experiment: Displacement of 125I-VIP from astroglia cells; conditions: central nervous system, FIGS. 2 and 3
[5] = test system: dissociated mouse spinal cord cultures (neurons); experiment: Neuronal survival in dissociated spinal cord cultures; assay type: cell-based
NCI-H226 = conditions: for NSCLC colony formation (colonies): NCI-H226, 1 μM addition, control 43.1 ± 5.7
[6] = test system: c-fos mRNA in NCIH810 cells; experiment: c-fos mRNA assay; assay type: cell-based
Protocol: In addition, the ability of VIP and the S-hybrid VIP antagonist to stimulate c-fos mRNA was examined; c-fos mRNA is a marker for cancer cell proliferation. […] This is true regardless of whether the VIP antagonist is co-administered with VIP or added by itself (See, Table IV, infra).
^a NCIH810 cells were treated with the peptide and the cfos mRNA
determined after 1 hour.
For the c-fos experiments, SCLC cells were cultured with SIT medium containing 0.5% fetal bovine serum. After 4 hours, the cells were treated with stimuli such as 10 nM BN for 60 min. Total RNA was isolated using the guanidinium isothiocyanate (GIT) method. Ten μg of denatured RNA was separated in a 0.66M formaldehyde 1% agarose gel as previously described. The gel was treated with ethidium bromide tp assess RNA integrity. The RNA was blotted onto a nitrocellulose membrane overnight and the membrane hybridized with a c-fos probe labelled with ^32 P-dCTP using a Bethesda Research Laboratories random priming kit. The membrane was exposed to Kodax XAR-2 film at […] for 1 day and the autoradiogram developed. The autoradiogram were analyzed using a Molecular Dynamics densitometer.

[7] = test system: VIP receptors on neuroblastoma (NMB) cells; experiment: VIP binding and displacement on intact neuroblastoma (NMB) cells; set-up: species or system human
Protocol: Alternatively, the VIP was iodinated according to the procedure described by Werner, et al. (Biochem. Biophys. Res. Commun., 133:228-232 (1985)). […] Experiments were repeated at least three times, each containing triplicates, error bars represent the standard error. Cells were grown for 24 hours (circles) and 48 hours (triangles). […] The binding parameters were determined by ACCUFIT program, Lundon-2 competition analysis (LUNDON software Inc., Chargin Falls, Ohio, U.S.A.). […] The calculated Bmax was 6×10^-14 moles/mg and 1.5×10^-14 moles/mg for cells grown for 24 hours as compared to cells grown for 48 hours, respectively.

[8] = test system: neuroblastoma (NMB) cells; experiment: Neuroblastoma (NMB) cell division by cell counts; assay type: cell-based, human
Protocol: FIG. 5. […] Neuroblastoma (NMB) cells have been grown in culture using RPMI-1640 medium supplemented with 10% fetal calf serum and gentamicin (100 μl of 40 mg/ml stock solution per 100 mL medium) in a humidified atmosphere of 5% CO2, 95% air. Cells were harvested with Puck's saline containing 0.25% trypsin and 0.02M EDTA every four days, centrifuged and seeded in 60 mm diameter tissue culture dishes (CORNING) at a density of 0.6-0.7×10^6 cells per dish.
For mitogenic assays, human NM cells were seeded in 35 mm diameter tissue culture dishes (CORNING) at a density of 0.2×10^6 cells per dish in RPMI-1640 medium plus 10% fetal calf serum. […] Cell counts were performed with a hemocytometer, using trypan blue staining for viability, on the second day (24 hours) after the VIP treatment. Results shown on the graph are cell/dish×1000. Error bars represent the standard error. Three-six replicates were counted for each data point and experiments were repeated three independent times.

[9] = test system: neuroblastoma (NMB) cells; experiment: Thymidine incorporation into neuroblastoma (NMB) cells; assay type: cell-based, human; conditions: 24 hours incubation, one day after seeding; read-out: EC50, stimulation of thymidine incorporation into NMB cells

CCCC[C@H](NC(=O)[C@H](CCC(N)=O)NC(=O)[C@H](CCCCN)NC(=O)[C@H](CCCNC(=N)N)NC(=O)[C@H](CC(C)C)NC(=O)[C@H](CCCNC(=N)N)NC(=O)[C@@H](NC(=O)[C@H](Cc1ccc(O)cc1)NC(=O)[C@H](CC(N)=O)NC(=O)[C@H](CC(=O)O)NC(=O)[C@@H](NC(=O)[C@H](Cc1ccc(O)cc1)NC(=O)[C@@H]1CCCN1C(=O)[C@H](CCCNC(=N)N)NC(=O)[C@H](CCCNC(=N)N)NC(=O)[C@@H]1CCCN1C(=O)[C@@H](N)CCCCN)[C@@H](C)O)[C@@H](C)O)C(=O)N[C@@H](C)C(=O)N[C@H](C(=O)N[C@@H](CCCCN)C(=O)N[C@@H](CCCCN)C(=O)N[C@@H](Cc1ccc(O)cc1)C(=O)N[C@@H](CC(C)C)C(=O)N[C@@H](CC(N)=O)C(=O)N[C@@H](CO)C(=O)N[C@H](C(=O)N[C@@H](CC(C)C)C(=O)N[C@@H](CC(N)=O)C(N)=O)[C@@H](C)CC)C(C)C [NL-hybrid VIP antagonist] (H-KPRRPYTDNYTRLRKQ[Nle]AVKKYLNSILN-NH2)
inhibition of cell growth (NCI-H1299): 100%
NSCLC colony formation (colonies) (NCI-H1299): 0
inhibition of VIP-induced cAMP formation (in words) [1]: effectively inhibits VIP-induced cAMP formation
potency relative to the hybrid antagonist in inhibiting tumor cell growth ([2]; two out of three NSCLC cell lines): ten-fold more potent
effect on 24 hours periodicity of activity rhythm [3]: abolished this 24 hours periodicity
overall activity of the animals [3]: overall increase in the activity
inhibition of cell growth (NCI-H727): 88%
NSCLC colony formation (colonies) (NCI-H727): 4.2 ± 3.1
affinity for the cAMP (low affinity) VIP receptor (in words) [4]: has an affinity for both
fold more potent than the hybrid VIP antagonist at inducing neuronal cell death [5]: 10 fold
affinity for the VIP-neuronal survival associated receptor (in words) ([5]; central nervous system, FIG. 1): has an affinity for both
concentration of maximal effect on neuronal cell death ([5]; spinal cord cultures, FIG. 1): 10^-10 M
inhibition of cell growth (NCI-H226): 92%
NSCLC colony formation (colonies) (NCI-H226): 3.5 ± 2.5

CC[C@H](C)[C@H](NC(=O)[C@H](CO)NC(=O)[C@H](CC(N)=O)NC(=O)[C@H](CC(C)C)NC(=O)[C@H](Cc1ccc(O)cc1)NC(=O)[C@H](CCCCN)NC(=O)[C@H](CCCCN)NC(=O)[C@@H](NC(=O)[C@H](C)NC(=O)[C@H](CCSC)NC(=O)[C@H](CCC(N)=O)NC(=O)[C@H](CCCCN)NC(=O)[C@H](CCCNC(=N)N)NC(=O)[C@H](CC(C)C)NC(=O)[C@H](CCCNC(=N)N)NC(=O)[C@@H](NC(=O)[C@H](Cc1ccc(O)cc1)NC(=O)[C@H](CC(N)=O)NC(=O)[C@H](CC(=O)O)NC(=O)[C@@H](NC(=O)[C@H](Cc1ccccc1)NC(=O)[C@@H](NC(=O)[C@H](C)NC(=O)[C@H](CC(=O)O)NC(=O)[C@H](CO)NC(=O)[C@@H](N)Cc1c[nH]cn1)C(C)C)[C@@H](C)O)[C@@H](C)O)C(C)C)C(=O)N[C@@H](CC(C)C)C(=O)N[C@@H](CC(N)=O)C(N)=O [VIP, Vasoactive intestinal polypeptide]
NSCLC colony formation (colonies) (NCI-H1299): 55.8 ± 19.8
stimulation of NSCLC colony formation in agar ([2]; index of cell growth): 2-3 fold
NSCLC colony formation (colonies) (NCI-H727): 115 ± 22.7
c-fos mRNA ([6]; 10 nM, NCIH810 cells, after 1 hour, NONE = 1.0): 5.6
effect on c-fos mRNA (in words) ([6]; antagonist co-administered with VIP or added by itself): stimulates c-los mRNA
NSCLC colony formation (colonies) (NCI-H226): 87.4 ± 4.8
fold higher affinity in younger cells (24 hrs) compared with older cells (48 hrs) [7]: about 10 fold
EC50 ([8]; 24 hour VIP treatment, added one day after seeding, read-out: EC50, stimulation of NMB cell division by cell counts): 500 nM
mitosis when added 48 hours after plating ([8]; additional 24 hours incubation): did not stimulate mitosis
concentration at peak of mitogenic activity ([8]; cell counts and thymidine incorporation, decreased thereafter): 1 µM
EC50 [9]: 500 nM
